IC50 data for ten compounds are collected here from patent US20260022142A1, “MACROCYCLIC IMMUNOMODULATORS” (Bristol-Myers Squibb Company, priority 2022, published 2026).

Numbered stars: 1 amine (or outer) side, 2 acyl side, 3 side chain; on linkers, the order of the positions; unused ones are H or OH. Bridge positions count the residues as written; N and C are the ends. Square brackets hold non-standard residues; d marks the D form. Peptide text beside a SMILES is read from it. * marks the point of attachment. ξ: configuration not given here. Phe(3-CF3) = N[C@@H](Cc1cccc(C(F)(F)F)c1)C(=O)O; Phe(4-COOH) = N[C@@H](Cc1ccc(C(=O)O)cc1)C(=O)O; Bip = N[C@@H](Cc1ccc(-c2ccccc2)cc1)C(=O)O; NH(CH2)14COOH = O=C(O)CCCCCCCCCCCCCCN*; Phe(3-Me) = Cc1cccc(C[C@H](N)C(=O)O)c1; γGlu = O=C(O)[C@H](CCC(=O)[*:2])N[*:1]; βAsp = O=C(O)[C@H](CC(=O)[*:2])N[*:1]; Val(3-OH) = CC(C)(O)[C@H](N)C(=O)O; Cha = N[C@@H](CC1CCCCC1)C(=O)O; Ile(3ξ) = CCC(C)[C@H](N)C(=O)O; Dap(Me) = CNC[C@H](N)C(=O)O; Carboxymethyl = O=C(O)C*; Nle = CCCC[C@H](N)C(=O)O; Orn = NCCC[C@H](N)C(=O)O; Dab = NCC[C@H](N)C(=O)O; AEEA = NCCOCCOCC(=O)O

The assay deals with T1, PD-1/PD-L1 interaction (PE-labeled human PD-L1-Ig binding to Jurkat cell line over-expressing human PD-1) (Homo sapiens, UniProt Q15116).
T1 construct: expressed in transfected cells; host or cells: Jurkat
T1 sequence (Q15116 25-288): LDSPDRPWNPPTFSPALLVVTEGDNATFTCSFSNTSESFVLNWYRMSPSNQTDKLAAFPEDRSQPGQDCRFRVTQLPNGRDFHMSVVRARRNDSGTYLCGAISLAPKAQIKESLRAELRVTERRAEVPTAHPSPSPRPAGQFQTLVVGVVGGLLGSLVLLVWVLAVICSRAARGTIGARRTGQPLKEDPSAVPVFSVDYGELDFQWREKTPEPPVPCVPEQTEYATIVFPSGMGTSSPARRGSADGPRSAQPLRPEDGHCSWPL
In words: Jurkat-PD-1 Cell Binding High-Content Screening Assay (CBA). The class given is cell-based. To be noted: Jurkat cell line over-expressing human PD-1; PE-labeled PD-L1-Ig 20 nM final; read-out: Jurkat hPD1-PDL1 IC50. The method, boiled down: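 Jurkat cells stably over-expressing human PD-1 were seeded in DMEM with 10% fetal calf serum and pre-incubated with compound for 2 h at 37° C. PE-labeled human PD-L1-Ig was then added at 20 nM final for 1 hour, after which cells were fixed with paraformaldehyde, Hoechst-stained and imaged by high-content microscopy.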
The IC50 is the concentration needed to halve the response being measured. On to `Cc1cccc(C[C@@H]2NC(=O)[C@H](CC(=O)O)NC(=O)[C@H](Cc3ccc(C(=O)O)cc3)NC(=O)[C@H](C)NC(=O)CSC[C@@H](C(=O)N[C@@H](CCN)C(=O)NCCOCCOCC(=O)N[C@@H](CCC(=O)O)C(=O)N[C@@H](CC(=O)NCCOCCOCC(=O)NCCCCCCCCCCCCCCC(=O)O)C(=O)O)NC(=O)[C@H](Cc3cnc[nH]3)NC(=O)[C@H](C(C)(C)O)NC(=O)[C@H](CC3CCCCC3)NC(=O)[C@H](CCN)NC(=O)[C@@H](CC(C)C)NC(=O)[C@H](CCCN)NC(=O)[C@H](Cc3ccc(C(=O)O)cc3)NC(=O)[C@H](Cc3ccc(-c4ccccc4)cc3)NC(=O)[C@H](Cc3ccc(C(=O)O)cc3)NC2=O)c1` [Compound 3884] ({CH2CO}-A[Phe(4-COOH)]D[Phe(3-Me)][Phe(4-COOH)][Bip][Phe(4-COOH)][Orn][dL][Dab][Cha][Val(3-OH)]HC[Dab][AEEA]E[βAsp][AEEA]-{NH(CH2)14COOH}; thioether N-14), for which the half-maximal inhibitory concentration (IC50) came out at 147 nM.

For the compound `CCC(C)[C@@H]1NC(=O)[C@H](Cc2ccc(-c3ccccc3)cc2)NC(=O)[C@H](C(C)C)NC(=O)[C@H](Cc2c[nH]c3ccccc23)NC(=O)[C@H](CC(=O)O)NC(=O)[C@H](Cc2ccc(OCC(=O)O)cc2)NC(=O)[C@H](Cc2ccc(OCC(=O)O)cc2)NC(=O)CSC[C@@H](C(=O)N[C@H](C)C(=O)NCCOCCOCC(=O)NCCCCCCCCCCCCCCC(=O)O)NC(=O)[C@H](CCCNC(=N)N)NC(=O)[C@H](C(C)(C)O)NC(=O)[C@H](CC2CCCCC2)NC(=O)[C@H](CCN)NC(=O)[C@@H](CC(C)C)NC(=O)[C@H](CCCN)NC1=O` (stereo partly drawn) [Compound 3886] ({CH2CO}-Y(Carboxymethyl)Y(Carboxymethyl)DWV[Bip][Ile(3ξ)][Orn][dL][Dab][Cha][Val(3-OH)]RC[dA][AEEA]-{NH(CH2)14COOH}; thioether N-14), the IC50 was determined as 202 nM.

Regarding `Cc1cccc(C[C@@H]2NC(=O)[C@H](CC(=O)O)NC(=O)[C@H](Cc3ccc(C(=O)O)cc3)NC(=O)[C@H](CCCN)NC(=O)CSC[C@@H](C(=O)N[C@@H](CCN)C(=O)NCCOCCOCC(=O)NCCOCCOCC(=O)N[C@@H](CCC(=O)O)C(=O)N[C@@H](CC(=O)NCCCCCCCCCCCCCCC(=O)O)C(=O)O)NC(=O)[C@H](Cc3cnc[nH]3)NC(=O)[C@H](C(C)(C)O)NC(=O)[C@H](CC3CCCCC3)NC(=O)[C@H](CCN)NC(=O)[C@@H](CC(C)C)NC(=O)[C@H](CCCN)NC(=O)[C@H](Cc3ccc(C(=O)O)cc3)NC(=O)[C@H](Cc3ccc(-c4ccccc4)cc3)NC(=O)[C@H](Cc3ccc(C(=O)O)cc3)NC2=O)c1` [Compound 3887] ({CH2CO}-[Orn][Phe(4-COOH)]D[Phe(3-Me)][Phe(4-COOH)][Bip][Phe(4-COOH)][Orn][dL][Dab][Cha][Val(3-OH)]HC[Dab][AEEA][AEEA]ED(NH(CH2)14COOH)-OH; thioether N-14), the IC50 was 56.3 nM.

For the compound `CC(=O)NCCCC[C@@H]1NC(=O)[C@H](C(C)(C)O)NC(=O)[C@H](CC2CCCCC2)NC(=O)[C@H](CCN)NC(=O)[C@@H](CC(C)C)NC(=O)[C@H](CCCN)NC(=O)[C@H](Cc2ccc(C(=O)O)cc2)NC(=O)[C@H](Cc2ccc(-c3ccccc3)cc2)NC(=O)[C@H](Cc2ccc(C(=O)O)cc2)NC(=O)[C@H](Cc2cccc(C(F)(F)F)c2)NC(=O)[C@H](CC(=O)O)NC(=O)[C@H](Cc2ccc(OCC(=O)O)cc2)NC(=O)[C@H](Cc2cnc[nH]2)NC(=O)CSC[C@@H](C(=O)N[C@@H](CCN)C(=O)NCCOCCOCC(=O)N[C@@H](CC(=O)N[C@@H](CC(=O)O)C(=O)NCCCCCCCCCCCCCCC(=O)O)C(=O)O)NC1=O` [Compound 3888] ({CH2CO}-HY(Carboxymethyl)D[Phe(3-CF3)][Phe(4-COOH)][Bip][Phe(4-COOH)][Orn][dL][Dab][Cha][Val(3-OH)]K(Ac)C[Dab][AEEA][βAsp]D-{NH(CH2)14COOH}; thioether N-14), the concentration for half-maximal inhibition (IC50) amounted to 116 nM.

Take `CC(C)C[C@H]1NC(=O)[C@H](CCCN)NC(=O)[C@H](Cc2ccc(C(=O)O)cc2)NC(=O)[C@H](Cc2ccc(-c3ccccc3)cc2)NC(=O)[C@H](Cc2ccc(C(=O)O)cc2)NC(=O)[C@H](Cc2cccc(C(F)(F)F)c2)NC(=O)[C@H](CC(=O)O)NC(=O)[C@H](Cc2ccc(OCC(=O)O)cc2)NC(=O)[C@H](Cc2cnc[nH]2)NC(=O)CSC[C@@H](C(=O)N[C@@H](CCN)C(=O)NCCOCCOCC(=O)N[C@@H](CC(=O)N[C@@H](CC(=O)O)C(=O)NCCCCCCCCCCCCCCC(=O)O)C(=O)O)NC(=O)[C@H](CCC(=O)O)NC(=O)[C@H](C(C)(C)O)NC(=O)[C@H](CC2CCCCC2)NC(=O)[C@H](CCN)NC1=O` [Compound 3889] ({CH2CO}-HY(Carboxymethyl)D[Phe(3-CF3)][Phe(4-COOH)][Bip][Phe(4-COOH)][Orn][dL][Dab][Cha][Val(3-OH)]EC[Dab][AEEA][βAsp]D-{NH(CH2)14COOH}; thioether N-14): the IC50 is 272 nM.

As for `CC(C)C[C@H]1NC(=O)[C@H](CCCN)NC(=O)[C@H](Cc2ccc(C(=O)O)cc2)NC(=O)[C@H](Cc2ccc(-c3ccccc3)cc2)NC(=O)[C@H](Cc2ccc(C(=O)O)cc2)NC(=O)[C@H](Cc2cccc(C(F)(F)F)c2)NC(=O)[C@H](CC(=O)O)NC(=O)[C@H](Cc2ccc(OCC(=O)O)cc2)NC(=O)[C@H](C(C)C)NC(=O)CSC[C@@H](C(=O)N[C@@H](CCN)C(=O)NCCOCCOCC(=O)N[C@@H](CCC(=O)O)C(=O)N[C@@H](CCC(=O)NCCCCCCCCCCCCCCC(=O)O)C(=O)O)NC(=O)[C@H](CC(=O)O)NC(=O)[C@H](C(C)(C)O)NC(=O)[C@H](CC2CCCCC2)NC(=O)[C@H](CCN)NC1=O` [Compound 3890] ({CH2CO}-VY(Carboxymethyl)D[Phe(3-CF3)][Phe(4-COOH)][Bip][Phe(4-COOH)][Orn][dL][Dab][Cha][Val(3-OH)]DC[Dab][AEEA]EE(NH(CH2)14COOH)-OH; thioether N-14), the IC50 worked out at 434 nM.

For `Cc1cccc(C[C@@H]2NC(=O)[C@H](CC(=O)O)NC(=O)[C@H](Cc3ccc(OCC(=O)O)cc3)NC(=O)[C@H](CC(C)C)NC(=O)CSC[C@@H](C(=O)N[C@@H](CCN)C(=O)NCCOCCOCC(=O)N[C@@H](CCC(=O)O)C(=O)N[C@@H](CCC(=O)NCCOCCOCC(=O)NCCCCCCCCCCCCCCC(=O)O)C(=O)O)NC(=O)[C@H](CC(=O)O)NC(=O)[C@H](C(C)(C)O)NC(=O)[C@H](CC3CCCCC3)NC(=O)[C@H](CCN)NC(=O)[C@@H](CC(C)C)NC(=O)[C@H](CCCN)NC(=O)[C@H](Cc3ccc(C(=O)O)cc3)NC(=O)[C@H](Cc3ccc(-c4ccccc4)cc3)NC(=O)[C@H](Cc3ccc(C(=O)O)cc3)NC2=O)c1` [Compound 3892] ({CH2CO}-LY(Carboxymethyl)D[Phe(3-Me)][Phe(4-COOH)][Bip][Phe(4-COOH)][Orn][dL][Dab][Cha][Val(3-OH)]DC[Dab][AEEA]E[γGlu][AEEA]-{NH(CH2)14COOH}; thioether N-14), the IC50 was found to be 388 nM.

Consider `CCCC[C@@H]1NC(=O)CSC[C@@H](C(=O)N[C@@H](CCN)C(=O)NCCOCCOCC(=O)N[C@@H](CO)C(=O)N[C@H](CCC(=O)NCCCCCCCCCCCCCCC(=O)O)C(=O)O)NC(=O)[C@H](CC(=O)O)NC(=O)[C@H](C(C)(C)O)NC(=O)[C@H](CC2CCCCC2)NC(=O)[C@H](CCN)NC(=O)[C@@H](CC(C)C)NC(=O)[C@H](CCCN)NC(=O)[C@H](Cc2ccc(OCC(=O)O)cc2)NC(=O)[C@H](Cc2ccc(-c3ccccc3)cc2)NC(=O)[C@H](Cc2ccc(C(=O)O)cc2)NC(=O)[C@H](Cc2cccc(C)c2)NC(=O)[C@H](CC(=O)O)NC(=O)[C@H](Cc2ccc(OCC(=O)O)cc2)NC1=O` [Compound 3893] ({CH2CO}-[Nle]Y(Carboxymethyl)D[Phe(3-Me)][Phe(4-COOH)][Bip]Y(Carboxymethyl)[Orn][dL][Dab][Cha][Val(3-OH)]DC[Dab][AEEA]S[dE](NH(CH2)14COOH)-OH; thioether N-14), for which the IC50 stood at 369 nM.

Take `CCCC[C@@H]1NC(=O)CSC[C@@H](C(=O)N[C@@H](CCN)C(=O)NCCOCCOCC(=O)N[C@@H](CO)C(=O)N[C@H](CCC(=O)NCCCCCCCCCCCCCCC(=O)O)C(=O)O)NC(=O)[C@H](Cc2cnc[nH]2)NC(=O)[C@H](C(C)(C)O)NC(=O)[C@H](CC2CCCCC2)NC(=O)[C@H](CCN)NC(=O)[C@@H](CC(C)C)NC(=O)[C@H](CCCN)NC(=O)[C@H](Cc2ccc(OCC(=O)O)cc2)NC(=O)[C@H](Cc2ccc(-c3ccccc3)cc2)NC(=O)[C@H](Cc2ccc(C(=O)O)cc2)NC(=O)[C@H](Cc2cccc(C)c2)NC(=O)[C@H](CC(=O)O)NC(=O)[C@H](Cc2ccc(OCC(=O)O)cc2)NC1=O` [Compound 3894] ({CH2CO}-[Nle]Y(Carboxymethyl)D[Phe(3-Me)][Phe(4-COOH)][Bip]Y(Carboxymethyl)[Orn][dL][Dab][Cha][Val(3-OH)]HC[Dab][AEEA]S[dE](NH(CH2)14COOH)-OH; thioether N-14): the IC50 stood at 106 nM.

Turning to `CNC[C@@H]1NC(=O)CSC[C@@H](C(=O)N[C@@H](CCN)C(=O)NCCOCCOCC(=O)N[C@@H](CO)C(=O)NCCCCCCCCCCCCCCC(=O)O)NC(=O)[C@H](CCC(=O)O)NC(=O)[C@H](C(C)C)NC(=O)[C@H](CC2CCCCC2)NC(=O)[C@H](CCN)NC(=O)[C@@H](CC(C)C)NC(=O)[C@H](CCCN)NC(=O)[C@H](Cc2ccc(C(=O)O)cc2)NC(=O)[C@H](Cc2ccc(-c3ccccc3)cc2)NC(=O)[C@H](Cc2ccc(C(=O)O)cc2)NC(=O)[C@H](Cc2cccc(C(F)(F)F)c2)NC(=O)[C@H](CC(=O)O)NC(=O)[C@H](Cc2ccc(OCC(=O)O)cc2)NC1=O` [Compound 3895] ({CH2CO}-[Dap(Me)]Y(Carboxymethyl)D[Phe(3-CF3)][Phe(4-COOH)][Bip][Phe(4-COOH)][Orn][dL][Dab][Cha]VEC[Dab][AEEA]S-{NH(CH2)14COOH}; thioether N-14), the IC50 was 49.4 nM.
